Experimental data: patent US8653046B2, “Controlling transgene expression across the skin” (ETH Zurich, priority 2009, dated 2014)

Legend:
TtgA1 (TtgR-VP16) [1] = target: T1, TtgA1 (TtgR-VP16) (Pseudomonas putida, UniProt Q9AIU0); assay: Compatibility test: phloretin-responsive SEAP production of CHO-PEACE8; type: cell-based, Pseudomonas putida DOT-T1E; set-up: expressed in transfected cells; host or cells: CHO-K1 (transient pMG11 or pMG13); also HEK-293, BHK-21, COS-7, HaCaT, HT-1080, NIH/3T3, primary human fibroblasts and keratinocytes; conditions: Phl 50 μM, 48 h, 100 = no inducer
Excerpt: To evaluate the functional compatibility of PEACE with the established tetracycline— [TETOFF; Gossen M., Bujard H., 1992, Proc Natl Acad Sci USA 89(12):5547-5551] and macrolide— [EOFF; Weber W., et al., 2002, Nat Biotechnol 20(9):901-907] responsive expression circuits CHO-PEACE8 is transiently transfected, transgenic for phloretin-responsive SEAP expression, with either the TETOFF-(pSAM200, PSV40-tTA-pA; pBP99, PhCMV*-1-SAMY-pA) or the EOFF-(PWW35, PSV40-ET1-pA; pBP100, PETR3-SAMY-pA) system set to control the Bacillus stearothermophilus-derived secreted α-amylase (SAMY) in response to tetracycline and erythromycin, respectively. SEAP and SAMY expression are scored 48 h after cultivation of the transfected populations in the presence (50 μM; 2 μg/mL) or absence of the inducer molecules (phloretin, tetracycline, erythromycin).
The stable CHO-PEACE8 cell line, transgenic for phloretin-controlled SEAP expression, is constructed in two steps: (i) CHO-K1 cells are co-transfected with pMG11 (PSV40-TtgA1-pA) and pSV2neo (Clontech, Cat. No. 6172-1) at a ratio of 20:1 and clonal selection results in the cell line CHO-TtgA. (ii) CHO-TtgA is co-transfected with pMG10 (PTtgR1-SEAP-pA) and pPur (Clontech, Cat. No. 6156-1) (ratio of 20:1) and the phloretin-responsive SEAP-producing double-transgenic cell line CHO-PEACE8 is chosen after clonal selection. […] Reversibility of phloretin-mediated SEAP production is assessed by cultivating CHO-PEACE8 (100,000 cells/mL) for 144 h while alternating phloretin concentrations from 0 to 50 μM every 48 h.

TtgA1 (TtgR-VP16) [2] = target: T1, TtgA1 (TtgR-VP16); assay: Time-delayed induction of SEAP production of CHO-PEACE8 in bioreactor; type: cell-based; set-up: expressed in transfected cells; host or cells: CHO-K1 (transient pMG11 or pMG13); also HEK-293, BHK-21, COS-7, HaCaT, HT-1080, NIH/3T3, primary human fibroblasts and keratinocytes; conditions: 1 L bioreactor, start doses 60, 80 or 100 μM phloretin
Procedure: 2×10^3 cells/mL CHO-PEACE8 are cultivated in a bioreactor containing 1 L culture medium supplemented with either 60, 80 or 100 μM phloretin and SEAP production is profiled for 211 h. Owing to a defined phloretin degradation profile in culture and a precise induction threshold of 40 μM phloretin, the onset of SEAP production can be programmed to occur at a very precise point in time by defining the cell density and the phloretin concentration at production start.
Since phloretin is a non-toxic fruit component, it is an ideal product gene inducer for biopharmaceutical manufacturing scenarios, which require precise timing or dosing of difficult-to-express protein pharmaceuticals. Also, since phloretin has a determined half-live of 70 h in mammalian cell culture systems any production culture can be programmed to start product gene expression at a predefined point in time as phloretin concentrations drop below a repressing threshold level. A 1 L BioWave® bioreactor is inoculated with 2×10^3 CHO-PEACE8 and different transgene-repressing phloretin doses of 60, 80 or 100 μM. While CHO-PEACE8 grows exponentially from the start of the bioprocess, SEAP production gradually increases once phloretin is degraded to non-repressive levels (40 μM; FIG. 8). […]

T1 sequence (Q9AIU0 whole entry, added parts left off): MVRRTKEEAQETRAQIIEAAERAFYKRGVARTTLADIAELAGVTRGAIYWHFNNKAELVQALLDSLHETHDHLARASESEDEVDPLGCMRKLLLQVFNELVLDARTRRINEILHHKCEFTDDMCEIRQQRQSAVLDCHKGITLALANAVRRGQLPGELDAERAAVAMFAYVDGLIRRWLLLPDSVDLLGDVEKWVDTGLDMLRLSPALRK

## O=C(CCc1ccc(O)cc1)c1c(O)cc(O)cc1O [phloretin, 3-[4-hydroxyphenyl]-1-[2,4,6-trihydroxyphenyl]-1-propanone]
TtgA1 (TtgR-VP16) [1]; CHO-PEACE8 transiently transfected with macrolide-responsive control system, EM 2 μg/mL
  Relative SEAP Production (%): 2.0 ± 1.2%
TtgA1 (TtgR-VP16) [1]; CHO-PEACE8 transiently transfected with tetracycline-responsive control system, Tet 2 μg/mL
  Relative SEAP Production (%): 2.2 ± 0.2%
TtgA1 (TtgR-VP16) [2]
  induction threshold (non-repressive phloretin level) for SEAP production: 40 µM
